Laboratory results reported in BindingDB's records for doi:10.1016/S0893-133X(01)00298-6 (Eli Lilly, 2001).
Where “and” joins values, the source holds several entries; their conditions need not be identical. Equal values may be shown once.

What was measured:
[1] = molecular target: 5-hydroxytryptamine receptor 1A (Homo sapiens, UniProt P08908)
[2] = molecular target: Amine oxidase [flavin-containing] A (Rattus norvegicus, UniProt P21396)
[3] = molecular target: Amine oxidase [flavin-containing] B (Rattus norvegicus, UniProt P19643)
[4] = molecular target: Mu-type opioid receptor (Rattus norvegicus, UniProt P33535)
Chain of Mu-type opioid receptor (P33535 whole entry): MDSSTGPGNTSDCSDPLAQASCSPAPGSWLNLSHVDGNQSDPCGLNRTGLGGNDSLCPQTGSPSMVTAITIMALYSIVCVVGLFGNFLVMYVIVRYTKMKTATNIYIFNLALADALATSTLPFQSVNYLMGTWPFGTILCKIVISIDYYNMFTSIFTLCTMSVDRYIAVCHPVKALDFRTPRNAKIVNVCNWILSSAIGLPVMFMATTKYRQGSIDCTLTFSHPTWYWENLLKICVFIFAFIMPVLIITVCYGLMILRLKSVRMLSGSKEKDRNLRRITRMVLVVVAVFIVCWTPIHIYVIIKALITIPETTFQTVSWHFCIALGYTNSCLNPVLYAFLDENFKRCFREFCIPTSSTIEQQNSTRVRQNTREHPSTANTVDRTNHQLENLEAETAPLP

[5] = molecular target: Kappa-type opioid receptor (Cavia porcellus, UniProt P41144)
[6] = molecular target: 5-hydroxytryptamine receptor 6 (Homo sapiens, UniProt P50406)
[7] = molecular target: Nitric oxide synthase, brain (Rattus norvegicus, UniProt P29476)
[8] = molecular target: Delta-type opioid receptor (Rattus norvegicus, UniProt P33533)
[9] = molecular target: 5-hydroxytryptamine receptor 1D (Homo sapiens, UniProt P28221)
[10] = molecular target: Alpha-1B adrenergic receptor (Rattus norvegicus, UniProt P15823)
[11] = molecular target: Sigma non-opioid intracellular receptor 1 (Cavia porcellus, UniProt Q60492)
Chain of Sigma non-opioid intracellular receptor 1 (Q60492 whole entry): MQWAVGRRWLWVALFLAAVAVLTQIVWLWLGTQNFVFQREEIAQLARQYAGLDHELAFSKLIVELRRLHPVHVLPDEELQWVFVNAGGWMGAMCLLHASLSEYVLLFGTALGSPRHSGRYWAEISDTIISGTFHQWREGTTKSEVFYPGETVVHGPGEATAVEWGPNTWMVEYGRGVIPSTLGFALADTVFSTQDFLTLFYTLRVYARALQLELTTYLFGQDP

[12] = molecular target: Adenosine receptor A1 (Rattus norvegicus, UniProt P25099)
[13] = molecular target: D(2) dopamine receptor (Homo sapiens, UniProt P14416)
[14] = molecular target: ATP-sensitive inward rectifier potassium channel 1 (Rattus norvegicus, UniProt P35560)
[15] = molecular target: Muscarinic acetylcholine receptor M2 (Homo sapiens, UniProt P08172)
Chain of Muscarinic acetylcholine receptor M2 (P08172 whole entry): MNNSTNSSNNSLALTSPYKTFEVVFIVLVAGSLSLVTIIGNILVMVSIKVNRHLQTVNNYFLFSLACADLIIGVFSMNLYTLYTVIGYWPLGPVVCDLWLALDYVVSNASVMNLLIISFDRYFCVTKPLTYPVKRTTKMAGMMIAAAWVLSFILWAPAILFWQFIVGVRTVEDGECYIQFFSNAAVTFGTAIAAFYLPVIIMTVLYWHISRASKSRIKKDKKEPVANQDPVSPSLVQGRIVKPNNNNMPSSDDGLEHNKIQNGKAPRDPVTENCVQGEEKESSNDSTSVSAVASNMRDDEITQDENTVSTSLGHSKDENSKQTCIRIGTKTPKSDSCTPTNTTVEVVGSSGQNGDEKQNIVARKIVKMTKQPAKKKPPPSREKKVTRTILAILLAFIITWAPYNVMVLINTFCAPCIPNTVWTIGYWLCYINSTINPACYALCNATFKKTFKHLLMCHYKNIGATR

[16] = molecular target: Gamma-aminobutyric acid receptor subunit alpha-1 (Rattus norvegicus, UniProt P62813)
Chain of Gamma-aminobutyric acid receptor subunit alpha-1 (Rattus norvegicus, UniProt P62813) (P62813 whole entry): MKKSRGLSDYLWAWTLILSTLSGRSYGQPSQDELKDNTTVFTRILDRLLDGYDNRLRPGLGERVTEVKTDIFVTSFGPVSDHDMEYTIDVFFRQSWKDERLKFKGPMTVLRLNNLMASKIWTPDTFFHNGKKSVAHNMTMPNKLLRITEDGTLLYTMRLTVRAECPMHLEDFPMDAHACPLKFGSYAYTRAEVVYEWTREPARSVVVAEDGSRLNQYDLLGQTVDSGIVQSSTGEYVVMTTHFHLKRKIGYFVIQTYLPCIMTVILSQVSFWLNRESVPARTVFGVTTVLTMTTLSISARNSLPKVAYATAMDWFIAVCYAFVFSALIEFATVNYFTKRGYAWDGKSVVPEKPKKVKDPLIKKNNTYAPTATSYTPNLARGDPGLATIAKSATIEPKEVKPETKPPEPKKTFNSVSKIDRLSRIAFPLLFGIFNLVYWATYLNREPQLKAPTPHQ

[17] = molecular target: Adenosine receptor A2b (Bos taurus, UniProt Q1LZD0)
Chain of Adenosine receptor A2b (Q1LZD0 whole entry): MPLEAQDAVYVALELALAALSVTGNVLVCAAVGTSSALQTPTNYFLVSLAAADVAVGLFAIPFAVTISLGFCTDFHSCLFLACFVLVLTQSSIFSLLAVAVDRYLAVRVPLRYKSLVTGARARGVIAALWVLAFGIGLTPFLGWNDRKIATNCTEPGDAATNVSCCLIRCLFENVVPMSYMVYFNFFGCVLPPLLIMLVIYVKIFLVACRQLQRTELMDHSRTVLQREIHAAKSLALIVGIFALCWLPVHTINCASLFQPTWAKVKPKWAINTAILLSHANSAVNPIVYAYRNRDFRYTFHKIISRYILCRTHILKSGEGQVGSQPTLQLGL

[18] = molecular target: Gastrin/cholecystokinin type B receptor (Mus musculus, UniProt P56481)
Chain of Gastrin/cholecystokinin type B receptor (P56481 whole entry): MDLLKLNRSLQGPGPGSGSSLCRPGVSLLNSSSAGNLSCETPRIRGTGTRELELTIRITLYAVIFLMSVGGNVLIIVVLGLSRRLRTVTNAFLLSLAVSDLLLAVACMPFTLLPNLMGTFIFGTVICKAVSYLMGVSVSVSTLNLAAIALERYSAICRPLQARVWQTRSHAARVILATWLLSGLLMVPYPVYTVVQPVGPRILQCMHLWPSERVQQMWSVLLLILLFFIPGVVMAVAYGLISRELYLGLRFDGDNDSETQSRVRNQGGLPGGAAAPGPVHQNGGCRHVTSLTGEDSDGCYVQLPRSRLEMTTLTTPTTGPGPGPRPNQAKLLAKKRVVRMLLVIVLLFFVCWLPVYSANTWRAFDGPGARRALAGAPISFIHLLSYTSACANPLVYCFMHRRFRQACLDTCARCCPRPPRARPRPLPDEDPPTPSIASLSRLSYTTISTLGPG

[19] = molecular target: D(1A) dopamine receptor (Rattus norvegicus, UniProt P18901)
Chain of D(1A) dopamine receptor (P18901 whole entry): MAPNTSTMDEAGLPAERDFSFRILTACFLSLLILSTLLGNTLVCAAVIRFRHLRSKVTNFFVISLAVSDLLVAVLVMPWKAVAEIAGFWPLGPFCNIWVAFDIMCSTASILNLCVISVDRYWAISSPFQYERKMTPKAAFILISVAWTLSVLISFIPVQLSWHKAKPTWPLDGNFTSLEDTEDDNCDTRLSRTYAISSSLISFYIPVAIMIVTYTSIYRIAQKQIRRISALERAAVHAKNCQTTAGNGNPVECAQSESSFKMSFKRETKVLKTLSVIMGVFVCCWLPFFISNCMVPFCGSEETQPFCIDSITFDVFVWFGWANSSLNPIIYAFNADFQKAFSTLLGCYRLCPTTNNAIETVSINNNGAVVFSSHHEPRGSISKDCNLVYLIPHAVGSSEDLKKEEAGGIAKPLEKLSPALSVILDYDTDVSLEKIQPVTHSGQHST

[20] = molecular target: Gamma-aminobutyric acid receptor subunit alpha-1 (Bos taurus, UniProt P08219)
[21] = molecular target: Glutamate receptor 3 (Rattus norvegicus, UniProt P19492)
[22] = molecular target: Glutamate receptor ionotropic, kainate 1 (Rattus norvegicus, UniProt P22756)
[23] = molecular target: Glycine receptor subunit alpha-1 (Rattus norvegicus, UniProt P07727)
[24] = molecular target: Phosphatidylinositol 3,4,5-trisphosphate 5-phosphatase 2 (Rattus norvegicus, UniProt Q9WVR3)
Chain of Phosphatidylinositol 3,4,5-trisphosphate 5-phosphatase 2 (Q9WVR3 whole entry): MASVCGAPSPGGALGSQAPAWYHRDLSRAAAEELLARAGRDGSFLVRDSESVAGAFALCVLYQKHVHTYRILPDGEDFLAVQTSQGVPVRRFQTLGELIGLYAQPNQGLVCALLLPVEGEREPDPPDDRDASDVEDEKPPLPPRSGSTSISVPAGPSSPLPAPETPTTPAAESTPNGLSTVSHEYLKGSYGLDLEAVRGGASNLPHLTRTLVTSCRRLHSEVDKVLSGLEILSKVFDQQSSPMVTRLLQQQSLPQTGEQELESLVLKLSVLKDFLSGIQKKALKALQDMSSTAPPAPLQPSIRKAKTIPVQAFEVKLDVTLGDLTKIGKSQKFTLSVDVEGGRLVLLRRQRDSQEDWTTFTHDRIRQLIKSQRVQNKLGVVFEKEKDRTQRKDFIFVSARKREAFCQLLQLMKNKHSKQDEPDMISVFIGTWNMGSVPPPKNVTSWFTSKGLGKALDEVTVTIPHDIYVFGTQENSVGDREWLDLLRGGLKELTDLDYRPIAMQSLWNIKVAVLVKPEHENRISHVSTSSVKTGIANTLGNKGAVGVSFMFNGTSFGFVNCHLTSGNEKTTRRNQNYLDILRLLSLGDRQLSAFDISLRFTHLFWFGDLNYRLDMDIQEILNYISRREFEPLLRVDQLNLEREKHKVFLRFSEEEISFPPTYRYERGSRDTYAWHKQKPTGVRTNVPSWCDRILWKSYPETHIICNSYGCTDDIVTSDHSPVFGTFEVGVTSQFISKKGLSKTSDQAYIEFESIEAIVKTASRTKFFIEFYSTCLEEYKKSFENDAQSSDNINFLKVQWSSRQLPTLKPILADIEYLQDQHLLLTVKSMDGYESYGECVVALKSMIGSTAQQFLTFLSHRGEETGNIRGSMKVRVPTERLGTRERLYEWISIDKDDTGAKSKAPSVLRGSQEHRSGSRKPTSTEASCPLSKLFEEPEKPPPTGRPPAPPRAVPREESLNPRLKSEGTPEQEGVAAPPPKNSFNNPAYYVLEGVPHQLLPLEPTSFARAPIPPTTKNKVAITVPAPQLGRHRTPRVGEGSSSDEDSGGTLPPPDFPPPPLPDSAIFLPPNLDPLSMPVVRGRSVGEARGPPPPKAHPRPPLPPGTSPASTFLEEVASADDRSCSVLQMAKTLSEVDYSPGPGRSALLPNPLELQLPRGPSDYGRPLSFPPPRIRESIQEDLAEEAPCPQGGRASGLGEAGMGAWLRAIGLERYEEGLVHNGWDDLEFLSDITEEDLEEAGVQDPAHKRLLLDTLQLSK

[25] = molecular target: Substance-K receptor (Rattus norvegicus, UniProt P16610)
Chain of Substance-K receptor (P16610 whole entry): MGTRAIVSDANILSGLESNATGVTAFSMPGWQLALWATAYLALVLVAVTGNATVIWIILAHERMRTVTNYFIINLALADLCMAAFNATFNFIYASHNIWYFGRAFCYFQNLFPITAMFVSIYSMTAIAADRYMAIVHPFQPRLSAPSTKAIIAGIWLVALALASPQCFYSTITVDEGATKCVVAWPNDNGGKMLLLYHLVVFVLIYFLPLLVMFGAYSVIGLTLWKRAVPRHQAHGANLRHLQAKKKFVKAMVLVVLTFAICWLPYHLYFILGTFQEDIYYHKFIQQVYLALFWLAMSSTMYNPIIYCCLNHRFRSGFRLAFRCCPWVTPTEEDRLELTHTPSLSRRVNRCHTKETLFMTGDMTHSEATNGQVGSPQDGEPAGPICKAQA

[26] = molecular target: Alpha-bungarotoxin (Bungarus multicinctus, UniProt P60615)
[27] = molecular target: Calcium-activated potassium channel subunit beta-1 (Rattus norvegicus, UniProt P97678)
[28] = molecular target: Sodium channel protein type 1 subunit alpha (Rattus norvegicus, UniProt P04774)
[29] = molecular target: Sodium channel protein type 2 subunit alpha (Rattus norvegicus, UniProt P04775)
[30] = molecular target: Alpha-2A adrenergic receptor (Homo sapiens, UniProt P08913)
Chain of Alpha-2A adrenergic receptor (P08913 whole entry): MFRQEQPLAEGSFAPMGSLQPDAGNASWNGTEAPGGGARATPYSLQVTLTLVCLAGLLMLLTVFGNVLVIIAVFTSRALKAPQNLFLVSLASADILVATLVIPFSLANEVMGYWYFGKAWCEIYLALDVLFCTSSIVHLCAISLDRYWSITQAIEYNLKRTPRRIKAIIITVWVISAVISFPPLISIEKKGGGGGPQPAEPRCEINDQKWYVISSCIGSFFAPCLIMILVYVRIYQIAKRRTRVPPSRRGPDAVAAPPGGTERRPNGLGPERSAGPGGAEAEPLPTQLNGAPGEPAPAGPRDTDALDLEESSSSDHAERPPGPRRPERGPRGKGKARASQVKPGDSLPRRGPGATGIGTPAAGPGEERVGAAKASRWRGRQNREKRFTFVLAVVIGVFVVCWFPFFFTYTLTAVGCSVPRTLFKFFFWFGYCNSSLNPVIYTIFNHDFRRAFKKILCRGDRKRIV

[31] = molecular target: Alpha-1A adrenergic receptor (Homo sapiens, UniProt P35348)

SMILES	Ki [1] [nM]	Ki [2] [nM]	Ki [3] [nM]	Ki [4] [nM]	Ki [5] [nM]	Ki [6] [nM]	Ki [7] [nM]	Ki [8] [nM]	Ki [9] [nM]	Ki [10] [nM]	Ki [11] [nM]	Ki [12] [nM]	Ki [13] [nM]	Ki [14] [nM]	Ki [15]	Ki [16] [nM]	Ki [17] [nM]	Ki [18] [nM]	Ki [19] [nM]	Ki [20] [nM]	also measured
CNCC[C@H](Oc1cccc2ccccc12)c1cccs1 [DULOXETINE]	5000	> 10000	> 10000	1000	1000	419	1000	1000	3000	> 1000	1000	> 1000	> 10000	> 1000	3000 nM and 1000 nM	> 1000	1000	> 1000	1000	> 1000	Ki [21]: > 1000 nM; Ki [22]: 1000 nM; Ki [23]: 1000 nM; Ki [24]: 1000 nM; Ki [25]: 1000 nM; Ki [26]: 1000 nM; Ki [27]: 1000 nM; Ki [28]: > 1000 nM; Ki [29]: > 1000 nM; Ki [30]: 8600 nM and 1000 nM
COc1ccc(C(CN(C)C)C2(O)CCCCC2)cc1 (stereo unspecified) [NSC_62923]	> 10000	> 10000	> 10000	1000	1000	2790	1000	1000	> 10000	> 1000	1000	> 1000	> 10000	> 1000	> 10000 nM and 1000 nM	> 1000	1000	> 1000	1000	> 1000	Ki [31]: > 10000 nM; Ki [21]: > 1000 nM; Ki [22]: 1000 nM; Ki [23]: 1000 nM; Ki [24]: 1000 nM; Ki [25]: 1000 nM; Ki [26]: 1000 nM; Ki [27]: 1000 nM; Ki [28]: > 1000 nM; Ki [29]: > 1000 nM; Ki [30]: > 10000 nM and 1000 nM
